Experimental findings from EPA's ToxValDB 9.5 are described below.

The LD50 is the dose at which mortality reaches 50%. A lower LD50 goes with a more toxic substance. One may read the NOAEL as the highest tested level that showed no adverse finding. The LOAEL is the lowest tested level that showed an adverse finding.

Structures are written as SMILES. Where “and” joins values, the source holds several entries; their conditions need not be identical. Equal entries are not always repeated.

One data set relates to Oryctolagus sp. The following applies: for LD50: acute, dermal; for NOAEL: reproduction developmental, duration: 21 days, oral, gavage.
The next data set has as its system Rattus norvegicus. The following applies: for LD50 / LC50: acute.
Where [1] appears, read: reproduction developmental, duration: 39 days, oral, gavage, generation: F0.
The mark [2] stands for this setting: short-term, duration: 28 days, oral, gavage.
The mark [3] stands for this setting: chronic, oral, diet, Sprague-Dawley.
Where [4] appears, read: short-term, duration: 4 weeks, oral, diet, Sprague-Dawley.

Turning to `CCCCCCCCCCCCOC(=O)CS(=O)(=O)[O-].[Na+]` [Sodium 2-(dodecyloxy)-2-oxoethane-1-sulphonate], the LD50 is above 2000 mg/kg in the data set with Oryctolagus sp. (occlusive, New Zealand); 1000 mg/kg in the data set on Rattus norvegicus (oral, Wistar); above 2000 mg/kg in the data set with Rattus norvegicus (oral, gavage, Sprague-Dawley). For the same compound, the NOAEL with Rattus norvegicus (reproduction developmental, duration: 39 days, oral, gavage) is 1000 mg/kg-day; in the data set on Rattus norvegicus (setting [1]) it was 200 mg/kg-day; in the data set on Rattus norvegicus (setting [2]), 200 mg/kg-day. The figures for the LOAEL in the data set with Rattus norvegicus (setting [1]) and in the data set with Rattus norvegicus (setting [2]) were 1000 mg/kg-day and 800 mg/kg-day, respectively.

Turning to `CCCC[N+](CC)(CCCC)CCCCCC[N+](CC)(CCCC)CCCC.[OH-].[OH-]`, the LD50 in the data set with Oryctolagus sp. (New Zealand) was 22.4 mg/kg; with Rattus norvegicus (oral, gavage, Sprague-Dawley) it was 350 mg/kg.

`CC(C)C(C)(N)C#N` (configuration not stated) [2-Amino-2,3-dimethylbutanenitrile]: the LD50 came to 23 mg/kg in the data set with Oryctolagus sp. (occlusive, New Zealand) and 83 mg/kg in the data set with Rattus norvegicus (oral, gavage, Sprague-Dawley). The LC50 in the data set with Rattus norvegicus (inhalation, Sprague-Dawley) is 422 mg/m3 and 335 mg/m3. For the same compound, in the data set with Rattus norvegicus (short-term, duration: 28 days, dermal, occlusive, Charles River (Sprague-Dawley derived)), the NOAEL was determined as 3 mg/kg-day.

Regarding `CCCCCCCCC(=O)OCC(CC)(COC(=O)CCCCCCCC)COC(=O)CCCCCCCC` [Trimethylolpropane trinonanoate], the LD50 in the data set on Oryctolagus sp. is above 2000 mg/kg; in the data set on Rattus norvegicus (oral, gavage, Crl:CD(SD)), above 2000 mg/kg; in the data set on Rattus norvegicus (oral, gavage, Sherman Wistar) it was above 5000 mg/kg; in the data set on Rattus norvegicus (oral, gavage, Sprague-Dawley), above 2000 mg/kg; in the data set on Rattus norvegicus (oral, gavage, Wistar) it was above 2000 mg/kg.

With `CC(C#N)CCC#N` (configuration not stated) [2-Methylpentanedinitrile], the LD50 is 776 mg/kg with Oryctolagus sp. (New Zealand); 205 mg/kg and ≥ 174 mg/kg and ≤ 243 mg/kg in the data set on Rattus norvegicus (oral, Sprague-Dawley). Also, the NOAEL in the data set on Rattus norvegicus (short-term, duration: 4 weeks, inhalation, Crl:CD(SD) BR) was 25 mg/m3.

As for `O=C1c2ccccc2C(=O)N1SC1CCCCC1` [N-(Cyclohexylthio)phthalimide], the LD50 with Oryctolagus sp. (occlusive, New Zealand) was above 5010 mg/kg. Also, in the data set with Rattus norvegicus (setting [3]), the LOAEL came to 150 mg/kg-day and the NOAEL was 50 mg/kg-day.

As to `O=S(=O)([O-])c1ccc(Nc2nc(Nc3ccc(/C=C/c4ccc(Nc5nc(Nc6ccc(S(=O)(=O)[O-])cc6)nc(N(CCO)CCO)n5)cc4S(=O)(=O)[O-])c(S(=O)(=O)[O-])c3)nc(N(CCO)CCO)n2)cc1.[Na+].[Na+].[Na+].[Na+]` [C.I. Fluorescent Brightener 220], the NOAEL in the data set on Oryctolagus sp. (F, New Zealand) is 100 mg/kg-day; in the data set on Oryctolagus sp. (New Zealand, generation: F1), 300 mg/kg-day and 800 mg/kg-day; with Rattus norvegicus (chronic, duration: 104 weeks, oral, diet, F, Wistar), 780 mg/kg-day; in the data set with Rattus norvegicus (chronic, duration: 104 weeks, oral, diet, M, Wistar) it was 780 mg/kg-day; in the data set on Rattus norvegicus (reproduction developmental, duration: 9 months, oral, gavage, Sprague-Dawley, generation: F1) it was 1000 mg/kg-day; in the data set on Rattus norvegicus (reproduction developmental, duration: 9 months, oral, gavage, Sprague-Dawley, generation: F2), 1000 mg/kg-day. Besides, the NOAEL was 1000 mg/kg-day with Rattus norvegicus (reproduction developmental, duration: 13 days, oral, gavage, F, Sprague-Dawley); 1000 mg/kg-day in the data set on Rattus norvegicus (reproduction developmental, duration: 13 days, oral, gavage, Sprague-Dawley, generation: F1); 1000 mg/kg-day with Rattus norvegicus (reproduction developmental, oral, gavage, Sprague-Dawley, generation: F0); 1000 mg/kg-day in the data set on Rattus norvegicus (reproduction developmental, oral, gavage, Sprague-Dawley, generation: F1); 500 mg/kg-day in the data set with Rattus norvegicus (subchronic, duration: 10 weeks, oral, gavage, F, Wistar); 500 mg/kg-day in the data set with Rattus norvegicus (subchronic, duration: 10 weeks, oral, gavage, M, Wistar). Also, the LD50 in the data set on Rattus norvegicus (oral, gavage) is above 15000 mg/kg.

Turning to `CCCCC(CC)COC(=O)c1c(Br)c(Br)c(Br)c(Br)c1C(=O)OCC(CC)CCCC` (configuration not stated) [Bis(2-ethylhexyl) tetrabromophthalate], the LD50 in the data set on Oryctolagus sp. (New Zealand) was above 3090 mg/kg. The compound also had an LD50 in the data set on Rattus norvegicus (oral, gavage, Crl:CD(SD)) above 5000 mg/kg. In the data set on Rattus norvegicus (setting [4]), this compound came in with an LOAEL of 20000 ppm and an NOAEL of 2000 ppm.

With `[Na+].[S-]c1nc2ccccc2s1` [Sodium 2-mercaptobenzothiolate], the LD50 in the data set on Oryctolagus sp. was above 7940 mg/kg; in the data set on Oryctolagus sp. (occlusive, New Zealand) it was above 7940 mg/kg; with Rattus norvegicus (oral) it was 4350 mg/kg; with Rattus norvegicus (oral, Sprague-Dawley), 1480 mg/kg and 4350 mg/kg. The LC50 in the data set on Rattus norvegicus (inhalation) was above 6.5 µg/mL; in the data set with Rattus norvegicus (inhalation, Sprague-Dawley) it was above 1.3 µg/mL.

On to `CCCCCCCCCCCCN(C)C` [N,N-Dimethyldodecan-1-amine], for which the LD50 in the data set with Oryctolagus sp. (occlusive, New Zealand) is 5000 mg/kg; with Rattus norvegicus (oral, gavage, Wistar) it was 1220 mg/kg and 790 mg/kg.

On to `C=C1C2CCC(C2)C1(C)C` (configuration not stated) [Camphene], for which the LD50 is above 2500 mg/kg in the data set on Oryctolagus sp. (New Zealand) and above 5000 mg/kg with Rattus norvegicus (oral, Wistar). The NOAEL worked out at 1000 mg/kg-day with Rattus norvegicus (developmental, duration: 10 days, oral, gavage, Sprague-Dawley); 250 mg/kg-day with Rattus norvegicus (reproduction developmental, duration: 10 days, oral, gavage, F, Sprague-Dawley); 250 mg/kg-day in the data set on Rattus norvegicus (short-term, duration: 28 days, oral, gavage, F, Wistar); 62.5 mg/kg-day in the data set with Rattus norvegicus (short-term, duration: 28 days, oral, gavage, M, Wistar). In the data set with Rattus norvegicus (short-term, duration: 28 days, oral, gavage, Wistar), the LOAEL is 1000 mg/kg-day.

`COc1c(Cl)ccc(Cl)c1C(=O)[O-].[Na+]` [Sodium dicamba]: the LD50 in the data set on Oryctolagus sp. (occlusive, New Zealand) was above 400 mg/kg; with Rattus norvegicus (oral, Sprague-Dawley) it was above 1000 mg/kg.

Take `OC1CCCCC1` [Cyclohexanol]: the LD50 in the data set on Oryctolagus sp. (New Zealand) is ≥ 501 mg/kg and ≤ 794 mg/kg; in the data set on Rattus norvegicus (oral, gavage, Carworth Wistar) it was 2060 mg/kg; with Rattus norvegicus (oral, gavage, Sprague-Dawley), 1550 mg/kg. Also, in the data set with Rattus norvegicus (Inhalation, Sprague-Dawley), the LC50 was above 3.63 µg/mL. In addition, the NOAEL came to 614 mg/m3 in the data set on Rattus norvegicus (developmental, inhalation, Sprague-Dawley); 614 mg/m3 in the data set with Rattus norvegicus (reproduction developmental, duration: 10 weeks, inhalation, Sprague-Dawley, generation: F0); 614 mg/m3 in the data set on Rattus norvegicus (reproduction developmental, duration: 10 weeks, inhalation, Sprague-Dawley, generation: F1); 614 mg/m3 with Rattus norvegicus (reproduction developmental, duration: 13 weeks, inhalation, Sprague-Dawley).
